PubChem BioAssay (NCI)
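Briefly, cells in 96-well plates were exposed to five compound concentrations for 48 h, and endpoints were estimated by linear interpolation. TGI marks complete inhibition of growth.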

Legend:
Test in all cases: DTP human tumour cell line panel, 48 h
CCRF-CEM leukemia = system: CCRF-CEM leukemia
MDA-MB-231 breast = system: MDA-MB-231 breast
DU-145 prostate = system: DU-145 prostate
OVCAR-4 ovarian = system: OVCAR-4 ovarian
IGROV1 ovarian = system: IGROV1 ovarian
NCI/ADR-RES ovarian = system: NCI/ADR-RES ovarian
HCT-116 colon = system: HCT-116 colon
MDA-MB-435 = system: MDA-MB-435
UO-31 renal = system: UO-31 renal
HOP-92 NSCLC = system: HOP-92 NSCLC
OVCAR-8 ovarian = system: OVCAR-8 ovarian
HT29 colon = system: HT29 colon
SF-268 CNS = system: SF-268 CNS
MOLT-4 leukemia = system: MOLT-4 leukemia
HL-60(TB) leukemia = system: HL-60(TB) leukemia
786-0 renal = system: 786-0 renal
OVCAR-3 ovarian = system: OVCAR-3 ovarian
NCI-H23 lung = system: NCI-H23 lung
RPMI-8226 leukemia = system: RPMI-8226 leukemia
SF-295 CNS = system: SF-295 CNS

Row | Compound | TGI (CCRF-CEM leukemia) [µM] | TGI (MDA-MB-231 breast) [µM] | TGI (DU-145 prostate) [µM] | TGI (OVCAR-4 ovarian) [µM] | TGI (IGROV1 ovarian) [µM] | TGI (NCI/ADR-RES ovarian) [µM] | TGI (HCT-116 colon) [µM] | TGI (MDA-MB-435) [µM] | TGI (UO-31 renal) [µM] | TGI (HOP-92 NSCLC) [µM] | TGI (OVCAR-8 ovarian) [µM] | TGI (HT29 colon) [µM] | TGI (SF-268 CNS) [µM] | TGI (MOLT-4 leukemia) [µM] | TGI (HL-60(TB) leukemia) [µM] | TGI (786-0 renal) [µM] | TGI (OVCAR-3 ovarian) [µM] | TGI (NCI-H23 lung) [µM] | TGI (RPMI-8226 leukemia) [µM] | TGI (SF-295 CNS) [µM]
1 | O=C1c2ccccc2C(=O)c2oc(Br)cc21 | 6.66 | 7.32 | 0.491 | 3.55 | 3.08 | 5.44 | 2.7 | 0.311 | 2.85 | 4.23 | 2.92 | 3.68 | 4.22 | 4.27 | 1.17 | 2.98 | 5.67 | 0.463 | 6.99 | 1.03
2 | S=C1N=C(Cl)/C(=C\c2ccccc2)N1 | > 31.6 | > 100 | > 100 | > 100 | > 100 | > 100 | > 100 | > 100 | > 100 | > 100 | > 100 | > 100 | > 100 | > 100 | > 100 | > 100 | > 100 | > 100 | > 100 | > 100
3 | COc1ccc(N2C(=O)CC(c3c[nH]c4ncccc34)C2=O)cc1 (stereo not given) | 16.8 | 40.3 | > 100 | 47 | 44.6 | > 79.1 | 45.8 | 19.4 | > 100 | 36 | 42.4 | 40.5 | > 100 | > 41 | > 37.4 | 49.7 | 36.2 | > 58.4 | > 100 | > 100
4 | N#CC(C#N)=Cn1c(=S)[nH]c2ccccc21 | > 100 | > 100 | > 100 | > 100 | > 100 | > 100 | > 100 | > 100 | > 100 | > 100 | > 100 | > 100 | > 100 | > 100 | > 100 | > 100 | > 100 | > 100 | > 100 | > 100
5 | C/C(=N\Nc1nc2ccccc2s1)c1cc(C)ncn1 | 4.2 | 9.47 | 45.1 | > 39.8 | 20.5 | 4.91 | > 27.2 | > 54.1 | 3.84 | > 30.6 | 4.01 | > 34.6 | 3.16 | 4.15 | > 100 | > 47.3 | > 25 | 15.7 | > 21 | 30.9
6 | CNCCC=C1c2ccccc2CCc2ccccc21 | 29.3 | > 51.9 | 28.8 | 28.6 | 30.7 | 30.4 | 27.8 | 28.2 | 18.2 | 28.8 | 31.7 | 16.1 | 29.6 | 29.4 | 31.7 | 27.7 | 23.6 | 29.9 | 32.8 | 27.8
7 | CCOC(=O)C(=O)C(CCC(=O)c1ccc2ccccc2c1O)C(=O)OCC (stereo not given) | > 100 | > 100 | > 100 | > 100 | > 100 | > 100 | > 100 | > 100 | > 100 | > 100 | > 100 | > 100 | > 100 | > 100 | > 100 | > 100 | > 100 | > 100 | > 100 | > 100
